Laboratory results published in PMC5908784, “Extracellular loops 2 and 3 of the calcitonin receptor selectively modify agonist binding and efficacy” (Biochemical Pharmacology, 2018).
Numbering of substitutions follows the chain as printed. Where a SMILES comes first, the peptide text is derived from it. Bridges are numbered along the chain shown (N, C = ends).

Legend:
Assay in all cases: ERK1/2 phosphorylation
Type in all cases: cell-based
Conditions in all cases: CV1-FlpIn cells, mean ± S.E.M.; for Emax: pERK maximal response; for EC50: pERK, three-parameter logistic fit
hCTR K366A = target: T1, hCTR K366A (Homo sapiens, UniProt P30988, K366A)
T1 construct: c-Myc (N); expressed in transfected cells
T1 sequence (P30988 25-474 K366A): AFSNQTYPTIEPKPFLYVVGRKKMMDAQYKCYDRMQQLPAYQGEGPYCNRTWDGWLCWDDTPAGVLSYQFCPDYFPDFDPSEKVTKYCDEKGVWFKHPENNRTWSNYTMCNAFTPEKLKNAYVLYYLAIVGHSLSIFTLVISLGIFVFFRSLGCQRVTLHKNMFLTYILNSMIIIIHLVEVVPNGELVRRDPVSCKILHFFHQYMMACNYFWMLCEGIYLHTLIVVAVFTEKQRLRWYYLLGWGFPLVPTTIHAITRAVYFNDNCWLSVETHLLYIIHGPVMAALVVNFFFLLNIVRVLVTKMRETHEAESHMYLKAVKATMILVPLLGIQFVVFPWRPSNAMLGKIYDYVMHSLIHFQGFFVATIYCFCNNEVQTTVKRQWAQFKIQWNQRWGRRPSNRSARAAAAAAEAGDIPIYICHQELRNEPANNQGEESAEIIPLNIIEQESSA
Procedure: (§1) Cells (2.5 × 10^4 cells/well) were seeded into 96-well culture plates and incubated overnight. […] Data were normalized to the maximal response elicited by 10% FBS determined at 6 min.
(§2) Data were corrected for radioligand occupancy using the Cheng-Prusoff equation in Prism; as such data are reported as pKi. Emax and EC50 were estimated from concentration-response curves using with a 3-parameter logistic equation in Prism (v7). These values are a composite of functional affinity, efficacy and stimulus response coupling. […] Significance was accepted at P < 0.05.

hCTR M376A = target: T2, hCTR M376A (Homo sapiens, UniProt P30988, M376A)
T2 construct: c-Myc (N); expressed in transfected cells
T2 sequence (P30988 25-474 M376A): T1 sequence (P30988 25-474 K366A) with A342K, M352A
Procedure: as §1, §2

hCTR T295A = target: T3, hCTR T295A (Homo sapiens, UniProt P30988, T295A)
T3 construct: c-Myc (N); expressed in transfected cells
T3 sequence (P30988 25-474 T295A): T1 sequence (P30988 25-474 K366A) with T271A, A342K
Procedure: as §1, §2

hCTR V358A = target: T4, hCTR V358A (Homo sapiens, UniProt P30988, V358A)
T4 construct: c-Myc (N); expressed in transfected cells
T4 sequence (P30988 25-474 V358A): T1 sequence (P30988 25-474 K366A) with V334A, A342K
Procedure: as §1, §2

hCTR WT = target: T5, hCTR WT (Homo sapiens, UniProt P30988)
T5 construct: expressed in transfected cells
T5 sequence (P30988 25-474): T1 sequence (P30988 25-474 K366A) with A342K
Procedure: as §1, §2

SMILES: CC(C)C[C@H](NC(=O)[C@H](CC(N)=O)NC(=O)[C@H](CC(N)=O)NC(=O)[C@H](CO)NC(=O)[C@H](CO)NC(=O)[C@H](CCCNC(=N)N)NC(=O)[C@@H](NC(=O)[C@H](CC(C)C)NC(=O)[C@H](Cc1ccccc1)NC(=O)[C@H](CC(N)=O)NC(=O)[C@H](C)NC(=O)[C@H](CC(C)C)NC(=O)[C@H](CCCNC(=N)N)NC(=O)[C@H](CCC(N)=O)NC(=O)[C@@H](NC(=O)[C@H](C)NC(=O)[C@@H]1CSSC[C@H](NC(=O)[C@@H](N)CCCCN)C(=O)N[C@@H](CC(N)=O)C(=O)N[C@@H]([C@@H](C)O)C(=O)N[C@@H](C)C(=O)N[C@@H]([C@@H](C)O)C(=O)N1)[C@@H](C)O)C(C)C)C(=O)NCC(=O)N1CCC[C@H]1C(=O)N[C@H](C(=O)N[C@@H](CC(C)C)C(=O)N1CCC[C@H]1C(=O)N1CCC[C@H]1C(=O)N[C@H](C(=O)N[C@@H](CC(N)=O)C(=O)N[C@H](C(=O)NCC(=O)N[C@@H](CO)C(=O)N[C@@H](CC(N)=O)C(=O)N[C@H](C(=O)N[C@@H](Cc1ccc(O)cc1)C(N)=O)[C@@H](C)O)C(C)C)[C@@H](C)O)C(C)C [rAmy]
- Emax (hCTR K366A): 84 ± 11%
- Emax (hCTR M376A): 43 ± 7%
- Emax (hCTR T295A): 28 ± 5%
- Emax (hCTR V358A): 59 ± 10%
- Emax (hCTR WT): 100 ± 5%

SMILES: CC[C@H](C)[C@H](NC(=O)[C@H](C)NC(=O)[C@@H](NC(=O)[C@H](CCC(N)=O)NC(=O)[C@@H]1CCCN1C(=O)[C@H](Cc1ccccc1)NC(=O)[C@@H](NC(=O)[C@H](Cc1c[nH]cn1)NC(=O)[C@H](Cc1ccccc1)NC(=O)[C@H](CCCCN)NC(=O)[C@H](CC(N)=O)NC(=O)[C@H](Cc1ccccc1)NC(=O)[C@H](CC(=O)O)NC(=O)[C@H](CCC(N)=O)NC(=O)[C@@H](NC(=O)[C@H](Cc1ccc(O)cc1)NC(=O)[C@@H](NC(=O)CNC(=O)[C@H](CC(C)C)NC(=O)[C@H](CCSC)NC(=O)[C@@H]1CSSC[C@H](N)C(=O)NCC(=O)N[C@@H](CC(N)=O)C(=O)N[C@@H](CC(C)C)C(=O)N[C@@H](CO)C(=O)N[C@@H]([C@@H](C)O)C(=O)N1)[C@@H](C)O)[C@@H](C)O)[C@@H](C)O)[C@@H](C)O)C(=O)NCC(=O)N[C@H](C(=O)NCC(=O)N[C@@H](C)C(=O)N1CCC[C@H]1C(N)=O)C(C)C [hCT]
- Emax (hCTR K366A): 186 ± 16%
- Emax (hCTR M376A): 52 ± 4%
- Emax (hCTR T295A): 48 ± 6%
- Emax (hCTR V358A): 160 ± 10%
- Emax (hCTR WT): 100 ± 3%

SMILES: CC(C)C[C@H](NC(=O)CNC(=O)[C@H](C)NC(=O)[C@H](CC(C)C)NC(=O)[C@H](CCCNC(=N)N)NC(=O)[C@H](Cc1cnc[nH]1)NC(=O)[C@@H](NC(=O)[C@@H](NC(=O)[C@@H]1CSSC[C@H](NC(=O)[C@H](C)N)C(=O)N[C@@H](CC(=O)O)C(=O)N[C@@H]([C@@H](C)O)C(=O)N[C@@H](C)C(=O)N[C@@H]([C@@H](C)O)C(=O)N1)C(C)C)[C@@H](C)O)C(=O)N[C@@H](CC(C)C)C(=O)N[C@@H](CO)C(=O)N[C@@H](CCCNC(=N)N)C(=O)N[C@@H](CO)C(=O)NCC(=O)NCC(=O)N[C@H](C(=O)N[C@H](C(=O)N[C@@H](CCCCN)C(=O)N[C@@H](CC(N)=O)C(=O)N[C@@H](CC(N)=O)C(=O)N[C@@H](Cc1ccccc1)C(=O)N[C@H](C(=O)N1CCC[C@H]1C(=O)N[C@H](C(=O)N[C@@H](CC(N)=O)C(=O)N[C@H](C(=O)NCC(=O)N[C@@H](CO)C(=O)N[C@@H](CCCCN)C(=O)N[C@@H](C)C(=O)N[C@@H](Cc1ccccc1)C(N)=O)C(C)C)[C@@H](C)O)C(C)C)C(C)C)C(C)C [hαCGRP]
- Emax (hCTR K366A): 146 ± 17%
- EC50 (hCTR K366A): 40.7 nM
- Emax (hCTR M376A): 36 ± 8%
- EC50 (hCTR M376A): 18.2 nM
- Emax (hCTR T295A): 22 ± 4%
- EC50 (hCTR T295A): 20.9 nM
- Emax (hCTR V358A): 39 ± 8%
- EC50 (hCTR V358A): 32.4 nM
- Emax (hCTR WT): 100 ± 6%
- EC50 (hCTR WT): 77.6 nM

SMILES: CC(C)C[C@H](NC(=O)[C@H](CCCCN)NC(=O)CNC(=O)[C@H](CC(C)C)NC(=O)[C@@H](NC(=O)[C@@H]1CSSC[C@H](N)C(=O)N[C@@H](CO)C(=O)N[C@@H](CC(N)=O)C(=O)N[C@@H](CC(C)C)C(=O)N[C@@H](CO)C(=O)N[C@@H]([C@@H](C)O)C(=O)N1)C(C)C)C(=O)N[C@@H](CO)C(=O)N[C@@H](CCC(N)=O)C(=O)N[C@@H](CCC(=O)O)C(=O)N[C@@H](CC(C)C)C(=O)N[C@@H](Cc1c[nH]cn1)C(=O)N[C@@H](CCCCN)C(=O)N[C@@H](CC(C)C)C(=O)N[C@@H](CCC(N)=O)C(=O)N[C@H](C(=O)N[C@@H](Cc1ccc(O)cc1)C(=O)N1CCC[C@H]1C(=O)N[C@@H](CCCNC(=N)N)C(=O)N[C@H](C(=O)N[C@@H](CC(N)=O)C(=O)N[C@H](C(=O)NCC(=O)N[C@@H](CO)C(=O)NCC(=O)N[C@H](C(=O)N1CCC[C@H]1C(N)=O)[C@@H](C)O)[C@@H](C)O)[C@@H](C)O)[C@@H](C)O [sCT]
- Emax (hCTR K366A): 136 ± 5%
- Emax (hCTR M376A): 72 ± 5%
- Emax (hCTR T295A): 49 ± 4%
- Emax (hCTR V358A): 150 ± 8%
- Emax (hCTR WT): 100 ± 3%

SMILES: CSCC[C@H](NC(=O)CNC(=O)[C@H](CO)NC(=O)[C@H](Cc1ccccc1)NC(=O)[C@H](CCCNC(=N)N)NC(=O)[C@H](Cc1c[nH]cn1)NC(=O)[C@H](Cc1ccccc1)NC(=O)[C@H](CC(N)=O)NC(=O)[C@H](CC(N)=O)NC(=O)[C@H](CC(C)C)NC(=O)[C@H](CC(N)=O)NC(=O)[C@H](CCCNC(=N)N)NC(=O)[C@H](Cc1c[nH]c2ccccc12)NC(=O)[C@H](Cc1ccc(O)cc1)NC(=O)[C@H](C)NC(=O)[C@H](CO)NC(=O)[C@H](CC(C)C)NC(=O)[C@@H](NC(=O)[C@@H]1CSSC[C@H](N)C(=O)N[C@@H](CO)C(=O)N[C@@H](CC(N)=O)C(=O)N[C@@H](CC(C)C)C(=O)N[C@@H](CO)C(=O)N[C@@H]([C@@H](C)O)C(=O)N1)C(C)C)C(=O)NCC(=O)N[C@@H](Cc1ccccc1)C(=O)NCC(=O)N1CCC[C@H]1C(=O)N[C@@H](CCC(=O)O)C(=O)N[C@H](C(=O)N1CCC[C@H]1C(N)=O)[C@@H](C)O [pCT] (H-CSNLSTCVLSAYWRNLNNFHRFSGMGFGPETP-NH2; disulfide 1-7)
- Emax (hCTR K366A): 156 ± 9%
- EC50 (hCTR K366A): 1.91 nM
- Emax (hCTR M376A): 47 ± 4%
- EC50 (hCTR M376A): 1.95 nM
- Emax (hCTR T295A): 50 ± 5%
- EC50 (hCTR T295A): 0.759 nM
- Emax (hCTR V358A): 101 ± 8%
- EC50 (hCTR V358A): 2.24 nM
- Emax (hCTR WT): 100 ± 3%
- EC50 (hCTR WT): 1.12 nM
